Data on seven compounds can be found in patent publication US6703403B2, “Method for improving pharmacokinetics” (Abbott Laboratories, priority 1995, dated 2004).

The nature of data set [1]: Pharmacokinetics of HIV protease inhibitors in rats, alone vs. in combination with ritonavir. Format: in vivo. Particulars: rat, po, 10 mg/kg; for AUC(0-t): read-out: AUC (0-8 h). The protocol: Rats (male, Sprague-Dawley derived, 0.3-0.45 kg) were fasted overnight prior to dosing, but were permitted water ad libitum. […] The solutions, administered orally by gavage to a group of rats at a dose volume of 2 ml/kg, provided a 10 mg/kg dose of each compound. […] The plasma was separated from the red cells by centrifugation and frozen (−30° C.) until analysis. […] The peak plasma concentration (Cmax) and time to peak plasma concentration (Tmax) for each rat were obtained directly from the plasma concentration data. The area under the curve was calculated by the trapezoidal method over the time course of the study. The plasma elimination half life was obtained from NONLIN84 or from a log-linear regression of the terminal plasma concentrations as a function of time after dosing. Each combination was evaluated in a group containing at least three rats; the values reported are averages for each group of animals. The data obtained from the combination was compared to data obtained from a separate group of rats which received a single, separate dose of the compound under evaluation.

Data set [2] in a line: Pharmacokinetics of clarithromycin in humans, alone vs. in combination with ritonavir. Particulars: oral, healthy human volunteers, 500 mg every 12 hours, single agent, day four of dosing, plasma. It is filed as in vivo. The text has this:
Blood samples were collected on day four of dosing for HPLC determination of plasma concentrations of clarithromycin. Below in Table 2 are shown the results from the pharmacokinetic experiments with clarithromycin in humans.

The mark [3] stands for this setting: male, Sprague-Dawley, plasma, oral gavage 10 mg/kg, compound administered as a single agent, plasma.
[4] abbreviates: male, Sprague-Dawley, plasma, oral gavage 10 mg/kg, compound administered as a single agent, plasma, read-out: Cmax.
Setting [5] is: male, Sprague-Dawley, plasma, oral gavage 10 mg/kg, compound administered as a single agent, plasma, read-out: Tmax.
Where [6] appears, read: male, Sprague-Dawley, plasma, oral gavage 10 mg/kg, dosed in combination with ritonavir 10 mg/kg, plasma.
The mark [7] stands for this setting: male, Sprague-Dawley, plasma, oral gavage 10 mg/kg, dosed in combination with ritonavir 10 mg/kg, plasma, read-out: Cmax.
Where [8] appears, read: male, Sprague-Dawley, plasma, oral gavage 10 mg/kg, dosed in combination with ritonavir 10 mg/kg, plasma, read-out: Tmax.

Regarding `Cc1c(O)cccc1C(=O)NC(CSc1ccccc1)C(O)CN1CC2CCCCC2CC1C(=O)NC(C)(C)C` (centres unmarked) [AG1343], the AUC(0-t) in data set [1] (setting [3]) turned out to be 1140 ng·h/mL; in data set [1] (setting [6]), 11900 ng·h/mL. Also, the peak concentration (Cmax) in data set [1] (setting [4]) came out at 400 ng/mL; in data set [1] (setting [7]), 1810 ng/mL. Moreover, the Tmax in data set [1] (setting [5]) is 45 min; in data set [1] (setting [8]) it was 240 min.
Regarding `CC(C)[C@H](NC(=O)N(C)Cc1ccccn1)C(=O)N[C@@H](Cc1ccccc1)[C@H](O)[C@H](O)[C@H](Cc1ccccc1)NC(=O)[C@@H](NC(=O)N(C)Cc1ccccn1)C(C)C` [Compound A-77003, (2S,3R,4S,5S)-2,5-Di-(N-((N-methyl)-N-((2-pyridinyl)methyl)amino)carbonylvalinylamino)-3,4-dihydroxy-1,6-diphenyl hexane], the AUC(0-t) in data set [1] (setting [3]) is 25 ng·h/mL; in data set [1] (setting [6]), 1390 ng·h/mL. The peak concentration (Cmax) in data set [1] (setting [4]) came to 70 ng/mL; in data set [1] (setting [7]) it was 960 ng/mL. Also, the results for the time to peak (Tmax) in data set [1] (setting [5]) and in data set [1] (setting [8]) were 15 min and 40.2 min, respectively.
Turning to `CC(C)[C@H](NC(=O)OCc1ccccn1)C(=O)N[C@@H](Cc1ccccc1)[C@@H](O)C[C@H](Cc1ccccc1)NC(=O)OCc1cccnc1` [Compound A-80987], in data set [1] (in vivo), the “AUC (0-8 h)” value amounted to 1450 ng·h/mL, the Cmax stood at 2420 ng/mL and the time of peak concentration (Tmax) was 15 min.
For `CC(C)(C)NC(=O)[C@@H]1CN(Cc2cccnc2)CCN1C[C@@H](O)C[C@@H](Cc1ccccc1)C(=O)N[C@H]1c2ccccc2C[C@H]1O` [MK-639, N-(2(R)-hydroxy-1 (S)-indanyl)-2(R)-phenylmethyl-4(S)-hydroxy-5-(1-(4-(3-pyridylmethyl)-2(S)-N′-(t-butylcarboxamido)-piperazinyl))-pentaneamide], in data set [1] (male, Sprague-Dawley, in vivo), the “AUC (0-8 h)” value stood at 810 ng·h/mL and the Tmax turned out to be 30 min. Moreover, in data set [1] (male, Sprague-Dawley, in vivo, Cmax), the Cmax came to 1030 ng/mL.
Turning to `CC(C)(C)NC(=O)[C@@H]1C[C@@H]2CCCC[C@@H]2CN1C[C@@H](O)[C@H](Cc1ccccc1)NC(=O)[C@H](CC(N)=O)NC(=O)c1ccc2ccccc2n1` [Saquinavir, N-tert-butyl-decahydro-2-[2(R)-hydroxy-4-phenyl-3(S)-[[N-(2-quinolylcarbonyl)-L-asparaginyl]amino]butyl]-(4aS, 8aS)-isoquinoline-3(S)-carboxamide], in data set [1] (male, Sprague-Dawley, in vivo), the “AUC (0-8 h)” value stood at 29 ng·h/mL, the highest concentration (Cmax) was 80 ng/mL and the time of peak concentration (Tmax) came to 10.8 min.
Consider `CC(C)CN(CC(O)C(Cc1ccccc1)NC(=O)OC1CCOC1)S(=O)(=O)c1ccc(N)cc1` (centres unmarked) [VX-478], for which the AUC(0-t) in data set [1] (male, Sprague-Dawley, in vivo, oral gavage 10 mg/kg, compound administered as a single agent, plasma) was found to be 1690 ng·h/mL; in data set [1] (male, Sprague-Dawley, in vivo, oral gavage 10 mg/kg, dosed in combination with ritonavir 10 mg/kg, plasma) it was 13500 ng·h/mL. Besides, the Cmax in data set [1] (male, Sprague-Dawley, in vivo, oral gavage 10 mg/kg, compound administered as a single agent, plasma, read-out: Cmax) came out at 1610 ng/mL; in data set [1] (male, Sprague-Dawley, in vivo, oral gavage 10 mg/kg, dosed in combination with ritonavir 10 mg/kg, plasma, read-out: Cmax), 2880 ng/mL. The Tmax in data set [1] (male, Sprague-Dawley, in vivo, oral gavage 10 mg/kg, compound administered as a single agent, plasma, read-out: Tmax) was determined as 25.2 min; in data set [1] (male, Sprague-Dawley, in vivo, oral gavage 10 mg/kg, dosed in combination with ritonavir 10 mg/kg, plasma, read-out: Tmax) it was 90 min.
With `CC[C@H]1OC(=O)[C@H](C)[C@@H](O[C@H]2C[C@@](C)(OC)[C@@H](O)[C@H](C)O2)[C@H](C)[C@@H](O[C@@H]2O[C@H](C)C[C@H](N(C)C)[C@H]2O)[C@](C)(OC)C[C@@H](C)C(=O)[C@H](C)[C@@H](O)[C@]1(C)O` [clarithromycin], in data set [2], the Cmax came to 3930 ng/mL. Also, the AUC(0-t) in data set [2] (read-out: AUC (0-24 h)) was determined as 49000 ng·h/mL.

Usually Cmax stands for the highest concentration seen after dosing. As usually defined, the Tmax is the time from dosing to the highest level.
